Test [1] concerns C. neoformans reference strain H99. Description: MIC, modified CLSI micro-broth dilution, H99. It counts as cell-based, Cryptococcus neoformans. In general terms: Dilution methods test growth across graded concentrations, often in twofold steps.
For test [2], the target named is T1, CnAcs1 (Cryptococcus neoformans, UniProt J9VFT1).
T1 sequence (J9VFT1 1-680): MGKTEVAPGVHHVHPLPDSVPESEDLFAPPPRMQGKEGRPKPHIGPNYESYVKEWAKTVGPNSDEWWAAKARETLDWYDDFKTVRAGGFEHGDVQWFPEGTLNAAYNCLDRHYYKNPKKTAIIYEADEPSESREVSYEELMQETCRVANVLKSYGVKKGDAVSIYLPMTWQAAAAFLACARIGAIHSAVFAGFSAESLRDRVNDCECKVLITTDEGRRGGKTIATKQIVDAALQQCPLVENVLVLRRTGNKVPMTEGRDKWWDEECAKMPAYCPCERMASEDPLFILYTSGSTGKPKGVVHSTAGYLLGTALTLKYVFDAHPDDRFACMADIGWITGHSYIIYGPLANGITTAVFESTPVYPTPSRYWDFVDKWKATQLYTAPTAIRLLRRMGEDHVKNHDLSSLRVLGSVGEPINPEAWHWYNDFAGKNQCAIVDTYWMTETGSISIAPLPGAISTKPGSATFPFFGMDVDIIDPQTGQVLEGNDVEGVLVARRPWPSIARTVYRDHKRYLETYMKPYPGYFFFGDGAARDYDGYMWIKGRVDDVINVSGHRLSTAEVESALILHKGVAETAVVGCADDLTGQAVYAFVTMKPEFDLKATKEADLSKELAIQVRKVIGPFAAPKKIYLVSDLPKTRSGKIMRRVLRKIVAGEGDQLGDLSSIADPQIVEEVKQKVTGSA
The experiment in a line: Acs coupled kinetic pyrophosphate. The format is biochemical.

Another test has as its system PfAcAS. As to conditions: cited from earlier work.
Test [3] has as its target T1, CnAcs1. As to conditions: cited from earlier work; for IC50: read-out: IC50 CnAcs1, alkyl-AMP esters.
A further test deals with T2, Ca^CnAcs2 (Candida albicans, UniProt Q8NJN3, A319M/F357Y/G320A/Q430M/V371T).
T2 sequence (Q8NJN3 with tags, fused parts or gaps A319M/G320A/F357Y/V371T/V388A/Q430M): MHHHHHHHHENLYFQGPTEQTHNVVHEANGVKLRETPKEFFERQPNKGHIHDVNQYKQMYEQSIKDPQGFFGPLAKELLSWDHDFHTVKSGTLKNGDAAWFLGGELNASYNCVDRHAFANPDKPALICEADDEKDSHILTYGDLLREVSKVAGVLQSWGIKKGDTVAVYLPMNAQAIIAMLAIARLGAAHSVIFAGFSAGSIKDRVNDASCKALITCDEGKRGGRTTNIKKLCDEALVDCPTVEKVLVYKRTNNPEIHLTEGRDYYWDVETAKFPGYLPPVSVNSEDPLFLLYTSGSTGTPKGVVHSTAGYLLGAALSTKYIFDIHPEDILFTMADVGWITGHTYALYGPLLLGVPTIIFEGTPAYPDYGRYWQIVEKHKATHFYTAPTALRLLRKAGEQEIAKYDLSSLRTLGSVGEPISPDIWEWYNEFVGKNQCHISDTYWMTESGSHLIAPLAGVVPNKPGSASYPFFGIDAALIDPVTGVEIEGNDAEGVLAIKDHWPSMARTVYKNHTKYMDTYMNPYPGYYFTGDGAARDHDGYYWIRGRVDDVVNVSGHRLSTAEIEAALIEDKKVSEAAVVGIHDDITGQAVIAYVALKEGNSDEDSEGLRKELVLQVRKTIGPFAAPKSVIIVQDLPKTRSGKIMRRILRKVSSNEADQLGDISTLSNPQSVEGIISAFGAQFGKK
The experiment in a line: Acs assay, Ca^CnAcs2 mutant enzyme. As to conditions: for IC50: read-out: IC50 Ca^CnAcs2.

The target in test [4] is T3, CaAcs2 (Candida albicans, UniProt Q8NJN3).
T3 sequence (Q8NJN3 1-671): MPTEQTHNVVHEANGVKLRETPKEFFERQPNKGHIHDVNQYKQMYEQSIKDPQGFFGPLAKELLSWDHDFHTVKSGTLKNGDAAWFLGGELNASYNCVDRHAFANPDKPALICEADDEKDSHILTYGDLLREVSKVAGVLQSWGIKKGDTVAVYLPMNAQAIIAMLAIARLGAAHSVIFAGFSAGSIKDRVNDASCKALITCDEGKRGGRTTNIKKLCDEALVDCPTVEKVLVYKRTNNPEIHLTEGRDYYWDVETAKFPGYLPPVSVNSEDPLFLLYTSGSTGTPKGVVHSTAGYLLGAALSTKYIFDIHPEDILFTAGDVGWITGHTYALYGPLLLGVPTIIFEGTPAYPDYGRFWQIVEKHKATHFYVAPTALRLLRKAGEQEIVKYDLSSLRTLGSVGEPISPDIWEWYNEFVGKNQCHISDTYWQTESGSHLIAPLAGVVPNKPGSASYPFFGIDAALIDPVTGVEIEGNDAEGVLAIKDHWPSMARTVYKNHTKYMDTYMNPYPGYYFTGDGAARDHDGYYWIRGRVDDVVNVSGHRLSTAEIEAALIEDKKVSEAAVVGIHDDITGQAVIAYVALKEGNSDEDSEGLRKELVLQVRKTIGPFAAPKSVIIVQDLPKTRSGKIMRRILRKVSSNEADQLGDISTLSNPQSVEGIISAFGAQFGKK
As to conditions: read-out: IC50 CaAcs2; cited from earlier work.

A further test deals with human ACSS2 (Homo sapiens, UniProt Q9NR19). Description: Acs coupled kinetic assay, human ACSS2. The format is biochemical.
The target of test [5] is T3, CaAcs2. The experiment in a line: Acs coupled kinetic assay, CaAcs2. The format is biochemical.

The IC50 is the concentration at which inhibition is half-maximal. By inhibition is commonly meant the change of the read-out against control, counted positive when it falls. By Ki is commonly meant the equilibrium dissociation constant of an inhibitor or competing ligand from its target.

≈ marks a conversion by molar mass, not a printed value. Entries after “also recorded” stand apart in the source; their conditions may differ. Where two headings read alike, the source gives them in different places.

Sequence of human ACSS2 (Q9NR19 whole entry): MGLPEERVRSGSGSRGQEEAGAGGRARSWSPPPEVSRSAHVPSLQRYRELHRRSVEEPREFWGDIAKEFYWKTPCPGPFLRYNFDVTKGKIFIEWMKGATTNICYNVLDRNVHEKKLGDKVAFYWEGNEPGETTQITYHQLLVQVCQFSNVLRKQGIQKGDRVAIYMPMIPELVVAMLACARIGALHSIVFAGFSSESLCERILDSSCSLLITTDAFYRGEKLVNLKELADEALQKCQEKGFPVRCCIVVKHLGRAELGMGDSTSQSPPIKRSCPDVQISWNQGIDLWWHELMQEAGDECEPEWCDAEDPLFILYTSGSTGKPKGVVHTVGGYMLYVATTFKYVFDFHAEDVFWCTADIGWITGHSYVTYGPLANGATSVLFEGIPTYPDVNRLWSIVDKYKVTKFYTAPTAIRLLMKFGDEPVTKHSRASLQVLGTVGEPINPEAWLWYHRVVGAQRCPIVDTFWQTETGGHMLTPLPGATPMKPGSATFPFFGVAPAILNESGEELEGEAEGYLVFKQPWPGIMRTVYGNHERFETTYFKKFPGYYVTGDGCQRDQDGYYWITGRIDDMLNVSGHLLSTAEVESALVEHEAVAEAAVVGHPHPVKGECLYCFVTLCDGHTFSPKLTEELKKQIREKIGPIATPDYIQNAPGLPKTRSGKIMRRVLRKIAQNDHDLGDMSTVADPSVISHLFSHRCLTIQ

Take `CCN(CC)S(=O)(=O)c1ccc(Cl)c(C(=O)Nc2ccc3nc(C)sc3c2)c1` [MMV019721]: the “antifungal activity against C. neoformans (in words)” value in test [1] is given as “no activity”. Further, the “inhibition of CnAcs1 (in words)” value against CnAcs1 [2] is given as “did not inhibit CnAcs1 below its solubility limit; also recorded: does not inhibit CnAcs1 at the maximum soluble concentration; also recorded: does not significantly inhibit CnAcs1”. Further, the “kinetic mechanism of PfAcAS inhibition” value in the test on PfAcAS was “competitive with ATP and uncompetitive with CoA”. As for `Nc1ncnc2c1ncn2[C@@H]1O[C@H](COP(=O)(O)OC2CC2)[C@@H](O)[C@H]1O` [cyclopropyl-AMP ester], the IC50 on CnAcs1 [3] was 9 µM. `CCCOP(=O)(O)OC[C@H]1O[C@@H](n2cnc3c(N)ncnc32)[C@H](O)[C@@H]1O` [propyl]: at CnAcs1 [3], the “decrease in potency relative to ethyl-AMP” value was 3 fold.

In the case of `CCOP(=O)(O)OC[C@H]1O[C@@H](n2cnc3c(N)ncnc32)[C@H](O)[C@@H]1O` [ethyl-AMP], the IC50 on Ca^CnAcs2 was 19 ± 7 µM; on CnAcs1 [3], 8 µM; at CaAcs2 [4] it was 11 ± 5 µM.

As for `CC(C)c1cc(CN(C)C(=O)c2cccc(-c3ccc(F)cc3)c2)no1` [compound 5], the “inhibition of CnAcs1 (in words)” value against CnAcs1 [2] was “eliminated inhibition entirely”. On the same count and under the same terms, in the case of `COP(=O)(O)OCC1OC(n2cnc3c(N)ncnc32)C(O)C1O` (stereo not drawn) [methyl-AMP ester] it was “completely inactive”; in that of `COC(=O)c1cccc(N2N=C(C)C(C(=O)Nc3cccc(C(C)(F)F)c3)C2=O)c1` (stereo not drawn) [MTB-9655], “no activity against CnAcs1”; in that of `CC(C)OP(=O)(O)OCC1OC(n2cnc3c(N)ncnc32)C(O)C1O` (stereo not drawn) [isopropyl-AMP ester], “equivalent to that of the cyclopropyl-AMP ester”.

For `CN(Cc1ccon1)C(=O)c1cccc(-c2ccc(F)cc2)c1` [compound 7], the “inhibition of CnAcs1 (in words)” value at CnAcs1 [2] was “completely inactive”. Turning to `CN(Cc1cc(C2CC2)on1)C(=O)c1cccc(-c2ccccc2)c1` [compound 12], at CnAcs1 [2], the “inhibition of CnAcs1 (in words)” value is recorded as “no activity”. With `CCCCOP(=O)(O)OCC1OC(n2cnc3c(N)ncnc32)C(O)C1O` (stereo not drawn) [butyl], the “decrease in potency relative to ethyl-AMP” value on CnAcs1 [3] is recorded as above 50 fold.

Regarding `CN(Cc1cccc(-c2ccc(F)cc2)c1)Cc1cc(C2CC2)on1` [compound 3], on CnAcs1 [2], the “inhibition of CnAcs1 (in words)” value is “no activity against CnAcs1”. The same measure, in the same setting: for `COc1ccc(-c2cccc(C(=O)N(C)Cc3cc(C4CC4)on3)c2)cc1` [compound 9] the value was “activity that was similar to 1 and more potent than 2”. Regarding `Cc1cc(CN(C)C(=O)c2cccc(-c3ccc(F)cc3)c2)no1` [compound 6], at CnAcs1 [2], the “inhibition of CnAcs1 (in words)” value is given as “much less potent than 2”. Further, at CnAcs1 [2] (read-out: inhibition of CnAcs1), the inhibition at 100 µM turned out to be 50%. `COc1ccccc1-c1cccc(C(=O)N(C)Cc2cc(C3CC3)on2)c1` [compound 10]: the “inhibition of CnAcs1 (in words)” value against CnAcs1 [2] is “eliminated activity”. Same read-out and setting: for `O=C(NCc1cc(C2CC2)on1)c1cccc(-c2ccc3c(c2)CCO3)c1` [compound 8] the value was “no activity against CnAcs1”. Consider `O=C(NNC(=O)c1csnn1)c1ccc(Cl)cc1` [MMV084978], for which, in test [1] (medium not stated), the “MIC toward C. neoformans” value is 64 µg/mL (≈ 226 µM). Further, at human ACSS2, the “fold higher IC50 toward ACSS2 than PfAcAS” value came to 50 fold. For the same molecule, on Ca^CnAcs2, the “maximum inhibition of Ca^CnAcs2” value came to 93%. Further, the concentration for half-maximal inhibition (IC50) on Ca^CnAcs2 is 88 ± 21 µM; with PfAcAS (read-out: IC50 PfAcAS), 0.37 µM. For the same molecule, the “fold higher IC50 toward CnAcs1 than PfAcAS” value is on record as ~ 8 fold on CnAcs1 [2] and 8 fold at CnAcs1 [2] (listed as MMV0894978). Further, the “kinetic mechanism of CnAcs1 inhibition” value at CnAcs1 [2] is “uncompetitive”; at CnAcs1 [2] (listed as MMV089478), “uncompetitive inhibitor of CnAcs1”. For the same molecule, the inhibition constant Ki at CnAcs1 [2] (read-out: Ki with CnAcs1, uncompetitive model, CoA varied) amounted to 4.1 µM. The “inhibition of CaAcs2 (in words)” value against CaAcs2 [5] was “did not inhibit CaAcs2”. Also, the “kinetic mechanism of PfAcAS inhibition” value with PfAcAS is “uncompetitive inhibitor with respect to ATP and CoA”.
